Experimental findings from ChEMBL document CHEMBL4033770, “Importance of a 4-Alkyl Substituent for Activity in the Englerin Series” (2017) are described below.

Assay type in all cases: functional
In one experiment the test system is ACHN. The experiment can be described thus: Growth inhibition of human ACHN cells incubated for 48 hrs by SRB assay.
For another experiment, the system named is UO-31. The experiment can be described thus: Growth inhibition of human UO31 cells incubated for 48 hrs by SRB assay. To be noted: UO-31, 48 h.
The test system of a further experiment is A498. The experiment can be described thus: Growth inhibition of human A498 cells incubated for 48 hrs by SRB assay. To be noted: A498, 48 h.
In the next experiment the test system is Hs-578T. The experiment can be described thus: Growth inhibition of human Hs 578T cells incubated for 48 hrs by SRB assay.

The structures appear in SMILES notation.

Consider `CC(C)[C@@H]1CC[C@@H]2[C@@H]1[C@H](OC(=O)/C=C/c1ccccc1)[C@@]1(C(C)C)C[C@@H](OC(=O)CO)[C@]2(C)O1`, for which the GI50 with ACHN was 8.3 nM; with UO-31, 11 nM; in the experiment on A498 it was 8.1 nM; in the experiment with Hs-578T, 3.2 nM.
In the case of `CC[C@@H]1CC[C@@H]2[C@@H]1[C@H](OC(=O)/C=C/c1ccccc1)[C@@]1(C(C)C)C[C@@H](OC(=O)CO)[C@]2(C)O1`, the GI50 worked out at 13 nM in the experiment with ACHN, 19 nM in the experiment with UO-31, 38 nM in the experiment on A498 and 4.1 nM with Hs-578T.
Regarding `CC(C)[C@]12C[C@@H](OC(=O)CO)[C@](C)(O1)[C@@H]1CCC[C@H]1[C@@H]2OC(=O)/C=C/c1ccccc1`, the GI50 with ACHN is 162 nM; with UO-31, 182 nM; in the experiment with A498, 123 nM; in the experiment with Hs-578T, 31 nM.
